Source: patent publication US7176281B2 (priority 2003, dated 2007)
Where a SMILES comes first, the peptide text is derived from it. Where no end group is shown, it is not given here.

What was measured:
sPLA2 [1] = test: Inhibition of sPLA2 activity at fixed concentrations; type: biochemical
sPLA2 [2] = details: known selective sPLA2 inhibitor; cited from earlier work
[3] = biological target: T1, serum group IIA secretory phospholipase A2 (Homo sapiens, UniProt P14555); details: patients with severe sepsis; cited from earlier work
T1 construct: host or cells: patients' serum
T1 sequence (P14555 21-144): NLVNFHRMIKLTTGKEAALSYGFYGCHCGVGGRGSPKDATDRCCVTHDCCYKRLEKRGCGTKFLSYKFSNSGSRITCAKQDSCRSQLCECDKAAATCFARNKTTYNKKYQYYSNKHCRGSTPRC

[4] = biological target: T2, Group IIA purified human synovial sPLA2 (Homo sapiens, UniProt P14555); test: In vitro inhibition of purified human synovial sPLA2, 3H-labelled E. coli membranes; type: biochemical; details: 3H-labelled E. coli membranes as substrate
T2 construct: purchased Cayman, USA
T2 sequence (P14555 21-144): T1 sequence (P14555 21-144)

[5] = biological target: snake venom PLA2 (crotoxin B) (Crotalus durissus terrificus, UniProt P0CAS2); test: biochemical
Sequence of snake venom PLA2 (crotoxin B) (P0CAS2 whole entry, looked up): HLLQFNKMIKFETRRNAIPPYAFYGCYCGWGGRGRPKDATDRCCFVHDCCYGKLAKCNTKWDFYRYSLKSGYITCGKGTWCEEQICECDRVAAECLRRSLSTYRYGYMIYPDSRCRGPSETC

[6] = biological target: T3, arthritis synovial fluid (human type IIA sPLA2) (Homo sapiens, UniProt P14555); test: PLA2 inhibition, E. coli membrane assay, arthritis synovial fluid sPLA2; type: biochemical; details: read-out: IC50 (mean±SD; n=3)
T3 construct: arthritis synovial fluid (human type IIA sPLA2); from tissue; host or cells: human arthritis synovial fluid
T3 sequence (P14555 21-144): T1 sequence (P14555 21-144)

[7] = biological target: T4, 100-kDa human recombinant cytosolic form of PLA2 (cPLA2) (Homo sapiens, UniProt P47712); test: PLA2 inhibition, E. coli membrane assay, cPLA2; type: biochemical
T4 sequence (P47712 1-749): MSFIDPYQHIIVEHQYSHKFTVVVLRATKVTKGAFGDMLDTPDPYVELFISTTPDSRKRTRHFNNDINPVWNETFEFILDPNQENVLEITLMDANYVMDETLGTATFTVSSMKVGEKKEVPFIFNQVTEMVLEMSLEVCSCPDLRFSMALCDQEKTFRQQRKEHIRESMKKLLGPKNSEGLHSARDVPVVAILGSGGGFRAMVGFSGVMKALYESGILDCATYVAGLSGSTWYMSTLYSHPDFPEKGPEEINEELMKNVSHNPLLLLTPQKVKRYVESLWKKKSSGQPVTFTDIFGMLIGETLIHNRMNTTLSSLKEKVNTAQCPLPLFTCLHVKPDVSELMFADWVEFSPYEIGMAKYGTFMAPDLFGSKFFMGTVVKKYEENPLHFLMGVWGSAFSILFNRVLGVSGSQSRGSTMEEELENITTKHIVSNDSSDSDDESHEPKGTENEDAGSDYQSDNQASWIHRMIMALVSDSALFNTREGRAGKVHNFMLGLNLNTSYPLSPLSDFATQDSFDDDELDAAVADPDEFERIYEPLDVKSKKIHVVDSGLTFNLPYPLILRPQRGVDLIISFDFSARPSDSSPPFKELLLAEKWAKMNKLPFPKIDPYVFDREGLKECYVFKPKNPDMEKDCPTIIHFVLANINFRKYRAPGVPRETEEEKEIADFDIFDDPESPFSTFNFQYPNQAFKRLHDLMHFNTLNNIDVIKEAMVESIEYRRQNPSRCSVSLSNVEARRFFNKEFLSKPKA

[8] = tested on: mammalian (human and rat) type IIA sPLA2; type: binding
[9] = tested on: Tg197 transgenic mice (chronic inflammatory polyarthritis); test: Tg197 transgenic mouse arthritis model, experiment 2 (4 weeks, time course); type: in vivo
Procedure: In experiment 2, mice were divided into 6 groups (A–F), and were injected i.p with 3 weekly doses (150 μg peptide in 50 μL DMSO per dose) of either the test peptide P-NT.II or the control peptide with the scrambled sequence for 4 consecutive weeks. Tg197 mice in Group B (n=18) were further divided into 4 sub-groups (B1, B2, B3, B4). At the end of 1st week, four Tg197 mice from Group B (sub-group B1) were sacrificed and both hind legs taken for histological processing and scorings. The remaining Tg197 mice from the other sub-groups B were continued with 3 regular doses of injections per week, and four Tg197 mice from each sub-group B2 and B3, were sacrificed at the end of 2nd and 3rd weeks, respectively. At the end of 4th week, all remaining Tg197 mice ([…]) were sacrificed for collection of joint specimens.
Disease monitoring was done by gross observations based on body weight measurements and arthritis scoring, which were done twice weekly after treatment until all the animals were sacrificed at 5th week in experiment 1, or at 4th week in experiment 2. Arthritis score (AS) was recorded on both ankle joints, and average scores as shown below were taken: • 0=no arthritis (normal appearance and flexion); • 0.5=onset of arthritis (mild joint swelling); • 1.0=mild arthritis (joint distortion); • 1.5=as above+finger deformation, less strength on flexion; • […]=moderate arthritis (severe swelling, joint deformation, no strength on flexion); • 2.5=as above+finger deformation in paws; • 3.0=heavy arthritis (ankylosis detected on flexion and severely impaired movement).
For histopathological scoring, both hind legs were dissected and fixed in 10% formaldehyde overnight, decalcified in citrate-buffered formic acid for 3 days at 4° C., and processed for light microscopy (LM). • Histopathological score (HS) was evaluated as follows: • 0=no detectable pathology, • 1=hyperplasia of the synovial membrane and presence of polymorphonuclear infiltrates • 2=pannus and fibrous tissue formation and focal subchondrial bone erosion • 3=articular cartilage destruction and bone erosion • 4=articular cartilage destruction and extensive bone erosion.
Transmission electron microscopy (TEM): Ankle joints dissected from the left hind leg of each mouse were split open longitudinally through the midline between the tibia and the talus, prefixed overnight with 2.5% glutaraldehyde in phosphate buffer, pH 7.4 (PB) and rinsed with PB. After fixing with 1% osmium tetroxide in PB for 2 h, they were dehydrated in a graded series of ethanol and processed into Araldite. Semi-thin sections (1.0μ) were cut and stained with methylene blue to observe the orientation and for histopathological scorings under the light microscope. Ultra-thin sections (80–90 nm) were then cut with an ultramicrotome (Riechert-Jung Ultracut E), mounted on copper grids, counterstained with uranyl acetate and lead citrate, and evaluated under electron microscope (CM120 Biotwin, FEI Company).
Anti-inflammatory activity of the candidate peptide P-NT.II was examined as a new treatment option for modulating rheumatoid arthritis (RA) in a transgenic animal model. To evaluate the potential effectiveness of the peptide as prophylaxis against RA, two separate experiments were performed in 4 week-old transgenic (Tg197) mice and non-transgenic wild-type (wt) mice. These transgenic mice (Tg197) express human tumor necrosis factor (TNFα), a cytokine which has been implicated in the pathogenesis of human RA.

serum sPLA2 = test: Serum sPLA2 levels in Tg197 mice, E. coli membrane assay; type: in vivo, mouse; details: 3–4 weeks post-treatment
Procedure: Serum of transgenic (Tg197) mice and non-transgenic wild type controls were measured for sPLA2 using an Escherichia coli (E. coli) membrane assay as described previously [Eur J Biochem 2002, 269:719–727]. In brief, [^3H] arachidonate-labeled E. coli membrane suspension (5.8 μCi/μmol, Perkin Elmer, USA) was used as substrate, and 25 mM CaCl2-100 mM Tris-HCl (pH 7.5) as assay buffer. The reaction mixture containing substrate (20 μl), and either purified human synovial sPLA2 standard (1–80 ng/ml, Cayman, USA) or serum (10 μl) in a final volume of 250 μl in assay buffer was incubated at 37° C. for 1 h, and the reaction terminated with 750 μl of chilled PBS containing 1% BSA. 500 μl aliquots of the supernatant were then taken to measure the amount of [^3H] arachidonate released from the E. coli membrane using liquid scintillation counting (Beckman LS 6500 Scintillation Counter). The amount of sPLA2 present in the serum was calculated from the standard curve, and is expressed as ng/ml±SEM.
FIG. 12 depicts time course of serum sPLA2 levels. Serum sPLA2 levels were measured with an E. coli membrane assay in blood samples collected from untreated, P-NT.I- and scrambled P-NT.II-treated Tg197 mice at weekly intervals. Values are the mean±SD (n=4/group). […]

crotoxin B (Group IIA) = crotoxin B (Group IIA) (Crotalus durissus terrificus, UniProt P0CAS2)
β-bungarotoxin (Group I) = β-bungarotoxin (Group I) (Bungarus multicinctus, UniProt P00617)
human recombinant cPLA2 = biological target: T5, human recombinant cPLA2 (Homo sapiens, UniProt P47712); type: binding
T5 sequence (P47712 1-749): T4 sequence (P47712 1-749)

[10] = biological target: bee (Apis mellifera) venom PLA2 (Group III) (Apis mellifera, UniProt P00630)

Question: Which “inhibition of sPLA2 activity” value (sPLA2 [1]; 10 μM) does the source give for `CC(=O)O[C@@H]1C[C@@H]2[C@@]3(C)CCCC(C)(C)[C@@H]3CC[C@@]2(C)[C@@H]2CC=C(C=O)[C@H](C=O)[C@@]12C` [12-epi-scalaradial] here?
Answer: The value was 75%.

Question: What about the “inhibition of sPLA2 activity” value (sPLA2 [1]; 20 μM) of the same molecule?
Answer: Its value is 95%.

Question: And the IC50 (sPLA2 [2])?
Answer: Its IC50 is 5.4 µM.

Question: With `CCc1c(C(=O)C(N)=O)c2c(OCC(=O)O)cccc2n1Cc1ccccc1` [LY315920] as the molecule, how does the “serum group IIA secretory phospholipase A2 enzyme activity” value [3] read?
Answer: The value was “inhibit”.

Question: Which IC50 [4] does the source give for `CC[C@H](C)[C@H](NC(=O)[C@H](Cc1ccc(O)cc1)NC(=O)[C@@H](NC(=O)CNC(=O)[C@H](CC(=O)O)NC(=O)[C@H](Cc1c[nH]c2ccccc12)NC(=O)[C@@H](NC(=O)[C@H](Cc1cnc[nH]1)NC(=O)[C@@H](NC(=O)[C@H](CC(=O)O)NC(=O)[C@@H](NC(=O)[C@H](CCCNC(=N)N)NC(=O)CNC(=O)[C@@H](N)CC(C)C)C(C)C)[C@@H](C)CC)C(C)C)C(C)C)C(=O)N[C@@H](CCCNC(=N)N)C(=O)NCC(=O)N[C@@H](CCCNC(=N)N)C(=O)O` [P-NT.II] (H-LGRVDIHVWDGVYIRGR-OH) here?
Answer: The IC50 was 5.3 µM.

Question: And the IC50 ([5]; IC50 (mean±SD; n=3))?
Answer: Its IC50 is 4.91 ± 2.47 µM.

Question: And the IC50 ([5]; IC50 ranging)?
Answer: The IC50 was 3.9 to 4.9 µM.

Question: And the IC50 [6]?
Answer: The IC50 was 3.91 ± 1.67 µM.

Question: What about the IC50 ([7]; human recombinant cPLA2, read-out: IC50 (mean±SD; n=3)) of the same molecule?
Answer: The IC50 was 23.9 ± 2.39 µM.

Question: What does the source list for `CC[C@H](C)[C@H](NC(=O)[C@H](CC(=O)O)NC(=O)[C@@H](NC(=O)[C@H](CCCNC(=N)N)NC(=O)[C@H](CCCNC(=N)N)NC(=O)[C@@H](N)Cc1ccc(O)cc1)C(C)C)C(=O)NCC(=O)N[C@@H](CC(C)C)C(=O)N[C@@H](CCCNC(=N)N)C(=O)N[C@H](C(=O)N[C@@H](Cc1c[nH]c2ccccc12)C(=O)N[C@@H](Cc1c[nH]cn1)C(=O)N[C@@H](CC(=O)O)C(=O)N[C@@H](CC(C)C)C(=O)NCC(=O)N[C@H](C(=O)NCC(=O)O)C(C)C)C(C)C` [Scrambled P-NT.II, reference compound] (H-YRRVDIGLRVWHDLGVG-OH; N-terminus and C-terminus assumed)?
Answer: inhibition of sPLA2 (sPLA2 [1]): failed to inhibit; IC50 ([5]; IC50): > 250 µM; competition with labeled P-NT.II for binding to type IIA sPLA2 [8]: failed to block; inhibition of cPLA2 [7]: failed to inhibit; ultrastructural features of the articular chondrocytes (TEM) ([9]; 1–4 weeks post-treatment): more or less similar to those described for untreated Tg197 mice; % of total at indicated HS scores, HS 2 ([9]; 4 wk treatment): 16.7%; % of total at indicated HS scores, HS 3 ([9]; 4 wk treatment): 83.3%; % of total at indicated HS scores, HS 4 ([9]; 4 wk treatment): 0%; Mean HS ± SEM ([9]; 4 wk treatment): 3.25 ± 0.17; circulating sPLA2 compared with untreated mice (serum sPLA2): not significantly different

Question: Which ELISA reaction (crotoxin B (Group IIA)) does the source give for “biotinylated-P-NT.II: P-NT.II labeled with biotin, 0.18 mol biotin bound to 1 mol of P-NT.II (LGRVDIHVWDGVYIRGR; also: labeled with biotin, 0.18 mol biotin per mol peptide, site not given here)” here?
Answer: Its ELISA reaction is “reacted positively”.

Question: What about the ELISA reaction (β-bungarotoxin (Group I)) of the same molecule?
Answer: Its ELISA reaction is “reacted positively”.

Question: And the ELISA reaction (human recombinant cPLA2)?
Answer: Its ELISA reaction is “reacted positively”.

Question: And the “binding to cPLA2 relative to sPLA2s” value (human recombinant cPLA2)?
Answer: Its value is “relatively much weaker”.

Question: And the ELISA reaction [10]?
Answer: The ELISA reaction was “reacted positively”.
